These results are taken from patent US12708620B2, “Prodrugs and medical uses thereof” (priority 2018, dated 2026).

One series relates to DMS 114 tumor xenograft. Kind of series: lung cancer (SCLC) xenograft model. It counts as in vivo, BALB/c Nude Mice. The following applies: DMS 114 xenograft; 600 mg/kg IP; hypoxic status confirmed. As to the method: (§1) All animal models were established as xenograft model in BALB/c Nude Mice (6-8 weeks old, 17-23 grams, maintained in standard conditions and diet), following approved IACUC (Institutional Animal Care and Use Committees) protocols. Cpd.11 Ms was formulated using 2% dimethyl sulfoxide (DMSO in water for injection, starting from a Cpd.11 Ms main preparation (100-60 mg/ml in 2% DMSO in water for injection).
(§2) After tumor cell inoculation, the animals were checked daily for morbidity and mortality. Before commencement of treatment all animals were weighed and the tumor volumes were measured using a caliper. The treatments were started when the mean tumor size reached approx. 250 mm^3. […] At the time of routine monitoring, the animals were checked for any effects of tumor growth and treatments on normal behavior such as mobility, visual estimation of food and water consumption, body weight gain/loss (body weights were measured daily during the 5-day treatment and thrice weekly after treatment), eye/hair matting and any other abnormal effect. Death and observed clinical signs were recorded on the basis of the numbers of animals within each subset. […] The surrogate endpoint for survival was calculated and indicated as TVx4 (initial tumor volume times 4). […] All data were analyzed in SPSS (Statistical Product and Service Solutions) version 18.0 (IBM, Armonk, NY, U.S.). […]

For series [1], the system named is MiaPaCa-2 tumor xenograft. Kind of series: pancreatic cancer xenograft model. The following applies: MiaPaCa-2 xenograft, 600 mg/kg IP, hypoxic status absent, methanesulfonate. It counts as in vivo, BALB/c Nude Mice. As to the method:
as §1, §2

A short description of series [2]: water solubility for preparing injection dilution.
Series [3] in a line: preliminary toxicology study, intravenous administration. The series is classed as in vivo, rat. The method, then: Preliminary toxicology studies of the intravenous administration of Cpd.11 Ms in rats and dogs according to a dosing regimen consisting of 3 consecutive days of administration in a 3 weekly cycle (QDx3/cycle) have shown that potential haematological toxicity in tissues such as the bone marrow, the thymus and lymph nodes (known to have hypoxic niches) can be minimized at dosages at or below 400 mg/kg in the rat and at or below 100 mg/kg in the dog. As such, these levels correspond to 2360 mg/m^2 and 2000 mg/m^2, respectively, in human subjects. […] Alternative dosing regimens also include weekly administration for up to 3 or 4 consecutive times of each 3 or 4 weekly cycle. In addition, also an initial dose of QDx3 or QDx5 could be combined with less frequent administration schedules that may still allow a therapeutic effect over tumor growth and development, such as up to 3 or 4 weekly dosages in 3 to 4 weekly cycles, or once a month (or every three-four weeks) schedules that be applied with or without the parallel treatment with the appropriate standard-of-care protocols.

Series [4] relates to NCI-H1650 tumor xenograft. Kind of series: lung cancer (NSCLC) xenograft model. The series is classed as in vivo, BALB/c Nude Mice. As to the method: as §1, §2

As for `CCN1CCN(C(=O)c2cc(N(CCBr)CCOS(C)(=O)=O)c(S(C)(=O)=O)cc2[N+](=O)[O-])CC1.CS(=O)(=O)O` [Cpd.11 Ms, 4-(5-((2-bromoethyl) (2-((methylsulfonyl)oxy)ethyl)amino)-4-(methylsulfonyl)-2-nitrobenzoyl)-1-ethylpiperazin-1-ium methanesulfonate], the Anti-tumor effect result in the series on DMS 114 tumor xenograft is reported as “Clear impact,”; in series [1] (listed as Cpd.11Ms), “No impact”; in series [1], “not observed”; in series [4] (600 mg/kg IP, hypoxic status confirmed) it was “Clear impact,”. Moreover, the solubility in series [2] was no less than 100 mg/mL. The “corresponding level in human subjects of the rat dosage” value in series [3] (from 400 mg/kg in the rat) was 2360 mg/m^2. For the same compound, the “dosage at which potential haematological toxicity (bone marrow, thymus, lymph nodes) can be minimized” value in series [3] (rat, intravenous, QDx3 in a 3 weekly cycle) is on record as no more than 400 mg/kg. Further, the “median surrogate survival index” value in series [4] (single treatment cycle) was “significant effect”.

In general, solubility refers to the dissolved amount per volume that the medium holds.
